Test results as given in patent publication US6852482B1, “Methods and compositions for inhibiting β-secretase” (Elan Pharmaceuticals, Inc., priority 1995, dated 2005).
Read-outs that look alike come from different tables or passages of the source.

Tests used:
β-secretase [1] = target: T1, β-secretase (Homo sapiens, UniProt P56817); assay: β-secretase inhibitor assay: purified β-secretase, MBP-C125 SW substrate, ELISA
[2] = target: T2, β-secretase cleavage of APP in membranes from 293 cells transfected with the Swedish variant of APP (Homo sapiens, UniProt P56817); assay: cell membrane (in situ) β-secretase cleavage of APP, 293SW cell membranes, 192SW immunoblot; assay type: biochemical
T2 construct: membranes from 293 cells transfected with the Swedish variant of APP (293SWE cells); endogenous in cells; host or cells: 293SW cells (human 293 cells stably transfected with Swedish APP); saponin-extracted P2 membrane pellet
Description: Generation of β-secretase cleaved APP fragments from the endogenous full length APP protein was observed using the 192SW antibody (described above) in membranes from 293 cells transfected with the Swedish variant of APP (293SWE cells). APP fragments may be measured by immunoprecipitation or by immunoblotting. The latter technique is preferred for reasons of convenience.
A semiquantitative assay for the detecting in situ β-secretase cleavage of APP in membranes was developed used to directly identify β-secretase inhibitors. The membrane assay is useful as a primary screen or as a secondary assay to confirm inhibiting activity of potential inhibitors identified in the assays described above.
Cell membrane assays were run as follows. […]
For β-secretase inhibition assays, 10 μl of the test compound of interest at 5 times its desired final concentration, in 500 mM sodium acetate, pH 5.5, and 20% DMSO, was added to 40 μl of the extracted P2 suspension. […] Membranes were blocked in NCS-TBS (10% newborn calf serum, 150 mM sodium chloride, 50 mM Tris, pH 7.5), and analyzed using 192SW, 0.5 μg/ml in NCS-TBS, as primary antibody, horseradish peroxidase-linked anti-rabbit IgG (Amersham) diluted 1:3000 in NCS-TBS as secondary antibody, and ECL reagent (Amersham) as chemilumenescent developer. The 192SW-reactive bands identified by autoradiography were quantitated by densitometry.

β-secretase [3] = target: T1, β-secretase; assay: binding of substantially purified β-secretase activity to immobilized lectins; design: endogenous in cells; host or cells: human 293 cells or human brain; solubilized membrane extract purified by WGA, SP, Q, Con A and Superdex 200 chromatography; conditions: for β-Secretase Binding: immobilized lectins
Method: Glycosylation of β-secretase has been investigated using various immobilized lectins, and ability of substantially purified β-secretase activity to bind to them was determined. […] A “−” sign signifies less than 20% binding, “+” between 24-40% binding, “++” between 50-75% binding, and “+++”>75% binding.

[4] = concentration of inhibitor giving 50% inhibition of control activity

T1 sequence (P56817 46-501): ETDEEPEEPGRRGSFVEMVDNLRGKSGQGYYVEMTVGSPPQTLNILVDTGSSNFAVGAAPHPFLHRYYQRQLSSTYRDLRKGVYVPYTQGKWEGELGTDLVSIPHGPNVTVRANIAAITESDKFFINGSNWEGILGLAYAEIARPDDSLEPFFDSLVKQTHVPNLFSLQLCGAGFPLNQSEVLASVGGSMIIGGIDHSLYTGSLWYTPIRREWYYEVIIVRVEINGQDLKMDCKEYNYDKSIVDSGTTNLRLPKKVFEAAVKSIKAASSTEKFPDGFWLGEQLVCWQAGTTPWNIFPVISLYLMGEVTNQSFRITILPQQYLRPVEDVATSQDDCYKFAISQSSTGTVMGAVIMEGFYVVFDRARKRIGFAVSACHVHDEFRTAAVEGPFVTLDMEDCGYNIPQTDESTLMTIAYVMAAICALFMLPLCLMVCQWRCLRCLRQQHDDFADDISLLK

Row | Molecule | IC50 (β-secretase [1]; [4]) [mM] | β-Secretase Binding (β-secretase [3]) | other results
1 | Nc1c(/N=N/c2ccc(-c3ccc(/N=N/c4cc(S(=O)(=O)O)c5ccccc5c4N)cc3)cc2)cc(S(=O)(=O)O)c2ccccc12 [Congo Red] |  |  | activity in the ELISA assay (β-secretase [1]; ELISA assay): much more potent than an inactive control compound; activity in the in situ assay [2]: much more potent than an inactive control compound
2 | [Cu+2] [Cu] | 2 |  | 
3 | [Zn+2] [Zn] | 3 |  | 
4 | CCCCC(NC(=O)C=[N+]=[N-])C(=O)OC (stereo not shown) [diazoacetylnorleucyl-methyl ester] |  |  | IC50 (β-secretase [1]): > 5 mM
5 | c1cnc2c(c1)ccc1cccnc12 [o-phenanthroline] | 7 |  | inhibition of β-secretase activity (β-secretase [1]; summary of Table 3): inhibits poorly
6 | m-phenanthroline | 7 |  | 
7 | wheat germ (WGA): immobilized lectin |  | + + + | binding of β-secretase activity (β-secretase [3]): quantitatively
8 | wheat germ - succinylated (SWGA): immobilized lectin |  | + (between 24-40% binding) | 
9 | lentil (LCA): immobilized lectin (protein) chain 1: TETTSFSITKFSPDQKNLIFQGDGYTTKGKLTLTKAVKSTVGRALYSTPIHIWDRDTGNVANFVTSFTFVIDAPSSYNVADEFTFFIAPVDTKPQTGGGYLGVFNSKEYDKTSQTVAVEFDTFYNAAWDPSNKERHIGIDVNSIKSVNTKSWNLQNGERANVVIAFNAATNVLTVTLTYP chain 2: VTSYTLNEVVPLKDVVPEWVRIGFSATTGAEFAAHEVHSWSFHSELGGTSSS |  | + (between 24-40% binding) | 
10 | peanut (PNA): immobilized lectin (protein, UniProt P02872 24-273, looked up, immobilized, immobilized lectin) Galactose-binding lectin: AETVSFNFNSFSEGNPAINFQGDVTVLSNGNIQLTNLNKVNSVGRVLYAMPVRIWSSATGNVASFLTSFSFEMKDIKDYDPADGIIFFIAPEDTQIPAGSIGGGTLGVSDTKGAGHFVGVEFDTYSNSEYNDPPTDHVGIDVNSVDSVKTVPWNSVSGAVVKVTVIYDSSTKTLSVAVTNDNGDITTIAQVVDLKAKLPERVKFGFSASGSLGGRQIHLIRSWSFTSTLITTTRRSIDNNEKKIMNMASA |  | + (between 24-40% binding) | 
